Experimental data published in patent US10294202B2, “Pyrrolidinones as herbicides” (FMC Corporation, priority 2013, dated 2019).

Tests used:
[1] = system: barnyardgrass; experiment: Test A pre-/postemergence herbicide test; assay type: in vivo, Echinochloa crus-galli
Outline: (§1)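 Approximately 10 days after treatment in the greenhouse, plants were compared with untreated controls and given a 0–100 visual injury rating. Applications: preemergence directed soil spray; postemergence on 2–10 cm plants at the one- to two-leaf stage.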

[2] = system: sedge, umbrella; experiment: Test B flooded paddy test; assay type: in vivo, Cyperus difformis; settings: 500 g ai/ha, Flood; scale of 0 to 100 where 0 is no effect and 100 is complete control
Outline: (§2)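 Plants were grown to the 2-leaf stage, then pots were flooded to 3 cm above the soil and compound was applied directly into the paddy water, with that depth held throughout. After 13 to 15 days in a greenhouse, injury was rated visually against untreated controls on a 0 to 100 scale (100 = complete control).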

[3] = system: kochia; experiment: Test A pre-/postemergence herbicide test; assay type: in vivo, Kochia scoparia; settings: for Plant response rating, Kochia: 0 to 100 scale
Outline: as §1

[4] = system: ducksalad; experiment: Test B flooded paddy test; assay type: in vivo, Heteranthera limosa; settings: 500 g ai/ha, Flood; scale of 0 to 100 where 0 is no effect and 100 is complete control
Outline: as §2

[5] = system: blackgrass; experiment: Test A postemergence herbicide test; assay type: in vivo, Alopecurus myosuroides
Outline: (§3)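 Injury was rated visually about 10 days after treatment on a 0 (no effect) to 100 (complete control) scale, compared with untreated plants. Test chemicals were sprayed postemergence onto greenhouse plants 2–10 cm high at one to two leaves, grown in a loam–sand blend.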

[6] = system: corn; experiment: Test A pre-/postemergence herbicide test; assay type: in vivo, Zea mays; settings: Postemergence
Outline: as §1

[7] = system: wheat; experiment: Test A pre-/postemergence herbicide test; assay type: in vivo, Triticum aestivum; settings: Postemergence; for Plant response rating, Wheat: 125 g ai/ha, 0 to 100 scale, 0 no effect, 100 complete control; for Wheat plant response rating (0 to 100 scale, 0 is no effect, 100 is complete control): 500 g ai/ha
Outline: as §1

[8] = system: ragweed; experiment: Test A pre-/postemergence herbicide test; assay type: in vivo, Ambrosia elatior; settings: for Plant response rating, Ragweed: 0 to 100 scale
Outline: as §1

[9] = system: rice; experiment: Test B flooded paddy test; assay type: in vivo, Oryza sativa; settings: 500 g ai/ha, Flood; scale of 0 to 100 where 0 is no effect and 100 is complete control
Outline: as §2

[10] = system: pigweed; experiment: Test A pre-/postemergence herbicide test; assay type: in vivo, Amaranthus retroflexus; settings: for Plant response rating, Pigweed: 0 to 100 scale
Outline: as §1

[11] = system: barnyardgrass; experiment: Test B flooded paddy test; assay type: in vivo, Echinochloa crus-galli; settings: 500 g ai/ha, Flood; scale of 0 to 100 where 0 is no effect and 100 is complete control
Outline: as §2

[12] = system: giant foxtail; experiment: Test A pre-/postemergence herbicide test; assay type: in vivo, Setaria faberii; settings: for Plant response rating, Foxtail, Giant: 0 to 100 scale
Outline: as §1

[13] = system: ryegrass, Italian; experiment: Test A pre-/postemergence herbicide test; assay type: in vivo, Lolium multiflorum; settings: for Plant response rating, Ryegrass, Italian: 0 to 100 scale
Outline: as §1

[14] = system: galium; experiment: Test A postemergence herbicide test; assay type: in vivo, Galium aparine; settings: for Plant response rating, Galium: 125 g ai/ha, 0 to 100 scale, 0 no effect, 100 complete control; for Galium plant response rating (0 to 100 scale, 0 is no effect, 100 is complete control): 500 g ai/ha
Outline: as §3

[15] = 125 g ai/ha, visual rating, 0 to 100 scale, 0 no effect, 100 complete control, approximately 10 days, preemergence
[16] = Postemergence, 125 g ai/ha, 0 to 100 scale, 0 no effect, 100 complete control
[17] = Postemergence, 500 g ai/ha, 0 to 100 scale (0 no effect, 100 complete control)
[18] = preemergence, 500 g ai/ha, 0 to 100 scale (0 no effect, 100 complete control)
[19] = 125 g ai/ha, visual rating, 0 no effect, 100 complete control, approximately 10 days, preemergence
[20] = Postemergence, 125 g ai/ha, 0 no effect, 100 complete control
[21] = 125 g ai/ha, 0 to 100 scale, 0 no effect, 100 complete control
[22] = 500 g ai/ha, 0 to 100 scale (0 no effect, 100 complete control)

| Structure (SMILES) | Plant response rating, Barnyardgrass [1, 15] | Plant response rating, Barnyardgrass [1, 16] | Plant response rating, Barnyardgrass [1, 17] | Plant response rating, Barnyardgrass [1, 18] | Plant response rating, Sedge, Umbrella [2] | Plant response rating, Kochia [3, 19] | Plant response rating, Kochia [3, 20] | Kochia plant response rating (0 to 100 scale, 0 is no effect, 100 is complete control) ([3]; Postemergence, 500 g ai/ha) | Plant response rating, Kochia ([3]; preemergence, 500 g ai/ha) | Plant response rating, Ducksalad [4] | Plant response rating, Blackgrass [5, 21] | Plant response rating, Blackgrass [5, 22] | Plant response rating, Corn [6, 21] | Plant response rating, Corn [6, 22] | Plant response rating, Wheat [7] | Wheat plant response rating (0 to 100 scale, 0 is no effect, 100 is complete control) [7] | Plant response rating, Ragweed [8, 19] | Plant response rating, Ragweed [8, 20] | Ragweed plant response rating (0 to 100 scale, 0 is no effect, 100 is complete control) ([8]; Postemergence, 500 g ai/ha) | Plant response rating, Ragweed ([8]; preemergence, 500 g ai/ha) | other results |
| --- | --- | --- | --- | --- | --- | --- | --- | --- | --- | --- | --- | --- | --- | --- | --- | --- | --- | --- | --- | --- | --- |
| O=C1NCC(c2ccc(F)cc2)C1C(=O)Nc1ccccc1OC(F)F (racemic) [Compound 118] | 50 | 0 | 60 | 70 | 0 | 0 | 10 | 50 | 0 | 100 | 0 | 0 | 0 | 0 | 0 | 0 | 0 | 0 | 0 | 0 | Plant response rating, Rice [9]: 0; Plant response rating, Pigweed [10, 19]: 0; Plant response rating, Pigweed [10, 20]: 0; Pigweed plant response rating (0 to 100 scale, 0 is no effect, 100 is complete control) ([10]; Postemergence, 500 g ai/ha): 0; Plant response rating, Pigweed ([10]; preemergence, 500 g ai/ha): 0; Plant response rating, Barnyardgrass [11]: 20; Plant response rating, Foxtail, Giant [12, 19]: 90; Plant response rating, Foxtail, Giant [12, 20]: 50; Foxtail, Giant plant response rating (0 to 100 scale, 0 is no effect, 100 is complete control) ([12]; Postemergence, 500 g ai/ha): 80; Plant response rating, Foxtail, Giant ([12]; preemergence, 500 g ai/ha): 90; Plant response rating, Ryegrass, Italian [13, 19]: 0; Plant response rating, Ryegrass, Italian [13, 20]: 0; Ryegrass, Italian plant response rating (0 to 100 scale, 0 is no effect, 100 is complete control) ([13]; Postemergence, 500 g ai/ha): 0; Plant response rating, Ryegrass, Italian ([13]; preemergence, 500 g ai/ha): 0; Plant response rating, Galium [14]: 50; Galium plant response rating (0 to 100 scale, 0 is no effect, 100 is complete control) [14]: 60 |
| O=C1NCC(c2cccc(OC(F)(F)C(F)F)c2)C1C(=O)Nc1cccc(F)c1F (racemic) [Compound 123] | 80 | 70 | 80 | 90 | 0 | 80 | 60 | 70 | 90 | 100 | 60 | 70 | 50 | 80 | 50 | 60 | 70 | 50 | 70 | 80 | Plant response rating, Rice [9]: 0; Plant response rating, Pigweed [10, 19]: 70; Plant response rating, Pigweed [10, 20]: 80; Pigweed plant response rating (0 to 100 scale, 0 is no effect, 100 is complete control) ([10]; Postemergence, 500 g ai/ha): 90; Plant response rating, Pigweed ([10]; preemergence, 500 g ai/ha): 80; Plant response rating, Barnyardgrass [11]: 60; Plant response rating, Foxtail, Giant [12, 19]: 90; Plant response rating, Foxtail, Giant [12, 20]: 80; Foxtail, Giant plant response rating (0 to 100 scale, 0 is no effect, 100 is complete control) ([12]; Postemergence, 500 g ai/ha): 90; Plant response rating, Foxtail, Giant ([12]; preemergence, 500 g ai/ha): 90; Plant response rating, Ryegrass, Italian [13, 19]: 40; Plant response rating, Ryegrass, Italian [13, 20]: 40; Ryegrass, Italian plant response rating (0 to 100 scale, 0 is no effect, 100 is complete control) ([13]; Postemergence, 500 g ai/ha): 50; Plant response rating, Ryegrass, Italian ([13]; preemergence, 500 g ai/ha): 60; Plant response rating, Galium [14]: 60; Galium plant response rating (0 to 100 scale, 0 is no effect, 100 is complete control) [14]: 70 |
| O=C1NCC(c2cccc(OC(F)(F)C(F)F)c2)C1C(=O)Nc1ccccc1Cl (racemic) [Compound 125] | 80 | 60 | 70 | 90 | 0 | 30 | 20 | 60 | 70 | 85 | 20 | 50 | 0 | 0 | 0 | 0 | 0 | 0 | 0 | 0 | Plant response rating, Rice [9]: 0; Plant response rating, Pigweed [10, 19]: 0; Plant response rating, Pigweed [10, 20]: 0; Pigweed plant response rating (0 to 100 scale, 0 is no effect, 100 is complete control) ([10]; Postemergence, 500 g ai/ha): 20; Plant response rating, Pigweed ([10]; preemergence, 500 g ai/ha): 0; Plant response rating, Barnyardgrass [11]: 30; Plant response rating, Foxtail, Giant [12, 19]: 80; Plant response rating, Foxtail, Giant [12, 20]: 70; Foxtail, Giant plant response rating (0 to 100 scale, 0 is no effect, 100 is complete control) ([12]; Postemergence, 500 g ai/ha): 80; Plant response rating, Foxtail, Giant ([12]; preemergence, 500 g ai/ha): 90; Plant response rating, Ryegrass, Italian [13, 19]: 0; Plant response rating, Ryegrass, Italian [13, 20]: 0; Ryegrass, Italian plant response rating (0 to 100 scale, 0 is no effect, 100 is complete control) ([13]; Postemergence, 500 g ai/ha): 0; Plant response rating, Ryegrass, Italian ([13]; preemergence, 500 g ai/ha): 20; Plant response rating, Galium [14]: 0; Galium plant response rating (0 to 100 scale, 0 is no effect, 100 is complete control) [14]: 60 |
